According to patent US20040151761A1, “Methods and compositions utilizing astaxanthin” (priority 2003, published 2004):
“Also recorded” adds a separate entry of the source.

Columns and labels:
[1] = Plasma astaxanthin in dogs fed astaxanthin diets; assay type: in vivo, dog
Experimental: Female Beagle dogs (9 to 10 mo old; 8.2±0.2 kg body weight; Covance Research Products Inc., Kalamazoo, Mich.) were randomly assigned (n=14/treatment) to be fed 0, 10, 20, or 40 mg astaxanthin (109 g astaxanthin/kg oleoresin concentrate from Haematococcus pluvialis, astraZanthin™, La Haye Laboratories, Redmond, Wash.) daily for 16 weeks. Astaxanthin was incorporated into a commercial basal diet (The Iams Co., Lewisburg, Ohio.) and fed two times daily (200 g food/d). The diet composition was as follows (g/kg): 85.3 moisture, 275.8 protein, 60.7 ash, 115.0 fat, 9.9 Ca, 9.3 P, 21.3 crude fiber, and 18,914 kJ/kg gross energy; the n-6:n-3 fatty acid ratio was 7.9. Dogs were housed in 2×3 m pens (2 dogs/pen) in a temperature (20 to 22° C.) and light-(14 hour light) controlled facility. Body weight was recorded on week 0, 4, 8, and 16. Blood was collected on wk 0, 6 and 12 for assessing immune function. All dogs were vaccinated (Vanguard 5™, Smithkline Beacham, West Chester, Pa.) twice on week 12 and 14 and blood again taken on week 16 to assess post-vaccination immune responses.

[2] = system: cutaneous delayed-type hypersensitivity (DTH); assay: Delayed-type hypersensitivity (skin induration) in dogs; assay type: in vivo, dog
Experimental: Female Beagle dogs (9 to 10 mo old; 8.2±0.2 kg body weight; Covance Research Products Inc., Kalamazoo, Mich.) were randomly assigned (n=14/treatment) to be fed 0, 10, 20, or 40 mg astaxanthin (109 g astaxanthin/kg oleoresin concentrate from Haematococcus pluvialis, astraZanthin™, La Haye Laboratories, Redmond, Wash.) daily for 16 weeks. Astaxanthin was incorporated into a commercial basal diet (The Iams Co., Lewisburg, Ohio.) and fed two times daily (200 g food/d). […] Blood was collected on wk 0, 6 and 12 for assessing immune function. All dogs were vaccinated (Vanguard 5™, Smithkline Beacham, West Chester, Pa.) twice on week 12 and 14 and blood again taken on week 16 to assess post-vaccination immune responses.
On week 12 (before vaccination) and 16 (after vaccination), all dogs were injected intradermally with 100 microliters of (1) saline (8.5 g/L; negative control), (2) an attenuated polyvalent vaccine containing canine distemper virus, adenovirus type-2, parainfluenza virus and parvovirus (undiluted; Vanguard 5™, Smithkline Beacham, West Chester, Pa.), and (3) phytohemagglutinin (PHA, 0.5 g/L) as previously described (Chew et al., 2000) to assess cutaneous delayed-type hypersensitivity (DTH). Skin induration was measured at 0, 24, 48 and 72 hours post-injection.

Hematology in dogs = assay type: in vivo, dog; details: throughout the study
Experimental: Hematology. Complete blood count (white blood cell, RBC and platelet counts, lymphocyte, monocyte and granulocyte differential counts, hematocrit, hemoglobin, and mean corpuscular volume, hemoglobin and hemoglobin concentration, and platelet volume) was performed on a hematology analyzer (Vet ABC-Hematology Analyzer, Heska, Fort Collins, Colo.) using EDTA-treated blood.

[3] = system: CD3, CD4, CD8, MHC II and CD21 lymphocyte subpopulations; assay: Leukocyte subsets in dogs by flow cytometry; assay type: in vivo, dog
Source text: Leukocyte subset. Subpopulations of CD3 (total T), CD4 (Th), CD8 (Tc), MHC II (activated lymphocytes), and CD21 (mature B cells) were quantitated by flow cytometry on week 0, 6, 12 and 16 (Chew et al., 2000).

C-reactive protein (CRP) = assay: Plasma C-reactive protein in dogs; assay type: in vivo, dog
Experimental: C-Reactive protein. Changes in acute phase proteins were assessed in plasma by measuring the C-reactive protein (CRP) concentrations using horseradish peroxidase-labeled anti-canine CRP in a solid-phase sandwich immunoassay (Tri Delta Diagnostics, Morris Plains, N.J.).

[4] = system: 8-Hydroxy-2′-deoxyguanosine (8-OHdG); assay: Oxidative damage to DNA in dogs (plasma 8-OHdG ELISA); assay type: in vivo, dog
Experimental: Oxidative damage to DNA. 8-Hydroxy-2′-deoxyguanosine (8-OHdG) was measured in plasma ELISA (BIOXYTECHTM™ 8-OHhdG-EIA Kit, OxisResearch, Portland, Oreg.; sensitivity=0.5 micrograms/L).

lipid peroxidation = assay: Lipid peroxidation in dogs; assay type: in vivo, dog
[5] = system: Crandell feline kidney fibroblast cells (CrFK); assay: Natural killer cell cytotoxic activity in cats; assay type: in vivo, cat
Experimental: Natural killer cell cytotoxic activity. Cultures of Crandell feline kidney fibroblast cells (CrFK, ATCC CRL-9761; Crandell et al., 1973) were grown in Dulbecco's Modified Eagles Medium (Sigma, St. Louis, Mo.) with 10% fetal bovine serum, 100 U/mL penicillin, and […] streptomycin sulfate. At 70-90% confluence, cells were trypsinized, washed and adjusted to 2×10^5 cells/mL. One hundred microliters of cell suspension was pipeted into each well of 96-well flat bottom plates (Nunclon, Denmark) and incubated at 37° C. for 8 hours. Ficoll-separated PBMC were adjusted to 1×10^6/mL or 2×10^6/mL and 100 μL of the cell suspensions were added to the CrFK target cells to provide effector:target cell ratios of 5:1 and 10:1. After incubating for 8 hours, 20 μL MTT (5 g/L) were added and the mixture incubated for 4 hours. The supernatant was removed and the formazan resuspended in 100 μL isopropanol. Optical density was measured at 550 nm and the percent of specific cytotoxicity calculated as follows:
% Specific cytotoxicity=1−(ODeffector+target−ODeffector)/ODtarget×100.

[6] = Absorption of astaxanthin and distribution to blood leukocytes and HDL in dogs; assay type: in vivo, dog
[7] = system: total T, Th, Tc, MHC II and CD21 lymphocyte populations; assay: Leukocyte subsets in cats by flow cytometry; assay type: in vivo, cat; details: by weeks 8 and 12, generally dose-dependent
mouse splenocytes = details: cultured cell assay (Jyonouchi et al.); cited from earlier work
[8] = compared with other antioxidants (Naguib, 2000; Miki, 1991); cited from earlier work
splenocyte = details: mice (Chew et al., 1999); cited from earlier work

For CC1=C(/C=C/C(C)=C/C=C/C(C)=C/C=C/C=C(C)/C=C/C=C(C)/C=C/C2=C(C)C(=O)C(O)CC2(C)C)C(C)(C)CC(O)C1=O (stereo not drawn) [astaxanthin, 3,3′-dihydroxy-beta, beta-carotene-4,4′-dione], the “time at which maximal blood concentrations were observed” value ([1]; all supplemented dogs) was no more than 6 wk, the plasma astaxanthin concentration ([1]; supplemented dogs, through week 16) was “increased in a dose-dependent manner” and the “time after intradermal challenge at which skin induration response was observed” value ([2]; before vaccination) was 48 h. The “DTH response to PHA” value ([2]; nonspecific antigen) was “No similar response was observed; also recorded: but not to PHA”, the “time after intradermal challenge at which skin induration response was observed” value ([2]; post-vaccination) was 24 h and the “DTH response compared with other carotenoids previously investigated” value ([2]; versus β-carotene and lutein in dogs) was “heightened DTH response”. For the same compound, the “skin induration response to saline, PHA or vaccine” value ([2]; wk 0 and 8) was “did not significantly influence”, the “DTH response to intradermal vaccine challenge” value ([2]; wk 12 (before vaccination), dogs fed 10, 20 and 30 mg (10 to 40 mg)) was “significant DTH response to vaccine; also recorded: higher DTH response at 38 and 72 h; also recorded: increased delayed-type hypersensitivity (DTH) response” and the “DTH response to intradermal vaccine challenge” value ([2]; wk 16, after vaccination on wk 12 and 14) was “observed earlier (at 24 and 38 h); also recorded: similarly enhanced”. The blood hematology (Hematology in dogs) was “generally showed no dietary effects”, the “population of B cells” value ([3]; 20 mg, post-vaccination week 16) was “showed the highest response; also recorded: highest B cell subpopulation” and the CD4 population ([3]; any time period) was “did not effect changes”. The CD8 population ([3]; any time period) was “did not effect changes”, the “MHC class II population” value ([3]; any time period) was “did not effect changes” and the CD3 population ([3]; dogs fed 30 mg) was “transient decrease in the CD3 population”. For the same compound, the “population of B cells” value ([3]; week 6 and 12, dose-dependent) was “generally increased the population of B cells”, the “plasma C-reactive protein concentrations” value (C-reactive protein (CRP); post-vaccination, week 16) was “decreased plasma C-reactive protein concentrations; also recorded: lower concentrations of circulating CRP” and the “plasma CRP concentrations between diets” value (C-reactive protein (CRP); through week 12) was “similar”. For the same compound, the “plasma CRP concentration averaged” value (C-reactive protein (CRP); through week 12, average over diets) was 4.48 mg/L, the “plasma 8-OHdG concentrations” value ([4]; dogs fed 40 mg versus lower doses) was “no further decrease” and the “plasma 8-OHdG production” value ([4]; supplemented dogs, as with C-reactive protein (post-vaccination)) was “inhibited the production of 8-OHdG”. The “plasma 8-OHdG concentration” value ([4]; wk 12) was “no dietary influence”, the lipid peroxidation (lipid peroxidation) was “reduced lipid peroxidation” and the “NK cell cytotoxic activity” value ([5]; week 8) was “no dietary treatment differences”. The “NK cell cytotoxic activity” value ([5]; week 12, effector:target ratio 5:1, 5 and 10 mg) was “stimulated NK cell cytotoxic activity”, the “NK cell cytotoxic activity” value ([5]; week 12, effector:target ratio 10:1, 1, 5 and 10 mg) was “stimulated NK cell cytotoxic activity” and the “lipoprotein association of circulating astaxanthin” value ([6]; dogs) was “associated with high-density lipoprotein (HDL)”. The “absorption of dietary astaxanthin” value ([6]; domestic dogs) was “able to absorb dietary astaxanthin”, the “uptake by blood and blood leukocytes (sub-cellular organelles)” value ([6]; domestic dogs fed astaxanthin) was “significant uptake by the blood and by all sub-cellular organelles of blood leukocytes; also recorded: significantly absorbed by blood leukocytes” and the “population of CD5+ total T cells” value [7] was “increased the populations; also recorded: increase in the populations of total T and Th lymphocytes”. For the same compound, the “in vitro antibody response of mouse splenocytes to T-dependent antigens” value (mouse splenocytes) was “increase in vitro antibody response”, the “antioxidant activity against certain reactive oxygen species” value [8] was “higher than that of beta-carotene, canthaxanthin, lutein, alpha-tocopherol, tunaxanthin, and zeaxanthin” and the mitogen-induced splenocyte proliferation (splenocyte) was “enhance mitogen-induced splenocyte proliferation”.
